# Data: patent US20110183978A1, “Phenylpyri(mi)dinylazoles” (Bayer CropScience AG, priority 2009, published 2011)
# Tests used:
# Alternaria solani = assay: Example M: in vivo test on Alternaria solani (leaf blotch disease/tomato/protective); settings: 168 h, tomato, protective, 500 ppm active substance, assessed 7 days after inoculation, read-out: % Wirkungsgrad (activity level)
# Experimental: Solvent: 49 parts by weight N,N-dimethylformamide Emulsifier: 1 part by weight alkylaryl polyglycol ethers For the preparation of a suitable active substance preparation, 1 part by weight of active substance is mixed with the stated quantities of solvent and emulsifier and the concentrate is diluted to the desired concentration with water. For the testing for protective activity, young tomato plants are sprayed with the active substance preparation at the stated application dosage. […] 7 days after the inoculation, the assessment takes place.
# [1] = LogPA (logP of the stated pure compound or, in a mixture, of the main isomer, 1-substituted 3-aryl-1H-pyrazole)
Structure (SMILES),"chromatographic logP (physchem; pH 2.3, LogP (pH 2.3))","chromatographic logP (physchem; pH 2.7, logP (pH 2.7))",further results
CC(C)=CCn1ncc(-c2ccncc2)c1-c1ccc(F)cc1 [Compound 25],,,pest or weed control at 500 ppm (Alternaria solani): 90%; chromatographic logP (physchem; [1]): 2.68
Fc1ccc(-c2nn(Cc3ccccc3-c3ccccc3)cc2-c2ccncc2)cc1 [Compound 135],,,pest or weed control at 500 ppm (Alternaria solani): 78%; chromatographic logP (physchem; [1]): 2.34
Cc1cc(C(=O)Cn2cc(-c3ccncc3)c(-c3ccc(F)cc3)n2)nn1C [Compound 144],,,pest or weed control at 500 ppm (Alternaria solani): 94%; chromatographic logP (physchem; [1]): 1.31
CCOC(=O)Cn1cc(-c2ccncc2)c(-c2ccc(F)cc2)n1 [Compound 170],,,pest or weed control at 500 ppm (Alternaria solani): 78%; chromatographic logP (physchem; LogPA): 1.31
C#CCNc1nccc(-c2c[nH]nc2-c2ccc(F)cc2)n1 [Compound 173],,,pest or weed control at 500 ppm (Alternaria solani): 94%; chromatographic logP (physchem; LogPA): 1.44
CCNC(=O)Nc1cc(-c2cn(CC(F)F)nc2-c2ccc(F)cc2)ccn1 [Compound 231],,,pest or weed control at 500 ppm (Alternaria solani): 95%; chromatographic logP (physchem; LogPA): 1.91
O=C(Nc1cc(-c2cn(CC(F)F)nc2-c2ccc(F)cc2)ccn1)c1ccsc1 [Compound 235],,,pest or weed control at 500 ppm (Alternaria solani): 94%; chromatographic logP (physchem; LogPA): 2.69
COCC(=O)Nc1cc(-c2cn(C(C)c3ccccc3F)nc2-c2ccc(F)cc2)ccn1 (stereo not drawn) [Compound 244],,,pest or weed control at 500 ppm (Alternaria solani): 94%; chromatographic logP (physchem; LogPA): 3.5
CCC(=O)Nc1cc(-c2cn(C(C)c3ccccc3F)nc2-c2ccc(F)cc2)ccn1 (stereo not drawn) [Compound 248],,,pest or weed control at 500 ppm (Alternaria solani): 94%; chromatographic logP (physchem; LogPA): 3.03
CC(c1ccccc1F)n1cc(-c2ccnc(NC(=O)C3CC3)c2)c(-c2ccc(F)cc2)n1 (stereo not drawn) [Compound 259],,,pest or weed control at 500 ppm (Alternaria solani): 90%; chromatographic logP (physchem; LogPA): 3.13
O=C(Nc1cc(-c2cn(OC3CCCC3)nc2-c2ccc(F)cc2)ccn1)C1CC1 [Compound 269],,,pest or weed control at 500 ppm (Alternaria solani): 89%; chromatographic logP (physchem; LogPA): 3.35
CC(C)Cn1cc(-c2ccnc(NCC3CC3)n2)c(-c2ccc(F)cc2)n1 [Compound 273],,,pest or weed control at 500 ppm (Alternaria solani): 90%; chromatographic logP (physchem; LogPA): 2.55
Fc1ccc(-c2nn(CC3OCCO3)cc2-c2ccncc2)cc1 [Compound 275],,,pest or weed control at 500 ppm (Alternaria solani): 90%; chromatographic logP (physchem; LogPA): 1.02
"FC1(F)Oc2cccc(-c3c(-c4ccncc4)cnn3C3CCCCO3)c2O1 (stereo not drawn) [[X-4], 4-[5-(2,2-difluoro-1,3-benzodioxol-4-yl)-1-(tetrahydro-2H-pyran-2-yl)-1H-pyrazol-4-yl]pyridine]",1.64,,
"Fc1ccc(-c2c(-c3ccncc3)cnn2C2CCCCO2)cc1Cl (stereo not drawn) [[X-6], 4-[5-(3-chloro-4-fluorophenyl)-1-(tetrahydro-2H-pyran-2-yl)-1H-pyrazol-4-yl]pyridine]",1.57,,
"Fc1ccc(-c2c(-c3ccncc3)cnn2C2CCCCO2)c(F)c1 (stereo not drawn) [[X-8], 4-[5-(2,4-difluorophenyl)-1-(tetrahydro-2H-pyran-2-yl)-1H-pyrazol-4-yl]pyridine]",1.35,,
"CC(C)(C)c1ccc(-c2c(-c3ccncc3)cnn2C2CCCCO2)cc1 (stereo not drawn) [[X-9], 4-[5-(4-tert-butylphenyl)-1-(tetrahydro-2H-pyran-2-yl)-1H-pyrazol-4-yl]pyridine]",2.02,,
"c1ccc(Oc2ccc(-c3c(-c4ccncc4)cnn3C3CCCCO3)cc2)cc1 (stereo not drawn) [[X-10], 4-[5-(4-phenoxyphenyl)-1-(tetrahydro-2H-pyran-2-yl)-1H-pyrazol-4-yl]pyridine]",1.88,,
"N#Cc1cccc(-c2c(-c3ccncc3)cnn2C2CCCCO2)c1 (stereo not drawn) [[X-11], 3-[4-(pyridin-4-yl)-1-(tetrahydro-2H-pyran-2-yl)-1H-pyrazol-5-yl]benzonitrile]",1.23,,
"N#Cc1cc(-c2c(-c3ccncc3)cnn2C2CCCCO2)ccc1F (stereo not drawn) [[X-12], 2-fluoro-5-[4-(pyridin-4-yl)-1-(tetrahydro-2H-pyran-2-yl)-1H-pyrazol-5-yl]benzonitrile]",1.45,,
"COc1cc(F)ccc1-c1c(-c2ccncc2)cnn1C1CCCCO1 (stereo not drawn) [[X-14], 4-[5-(4-fluoro-2-methoxyphenyl)-1-(tetrahydro-2H-pyran-2-yl)-1H-pyrazol-4-yl]pyridine]",1.26,,
"c1cc(-c2cnn(C3CCCCO3)c2-c2ccc(N3CCOCC3)cc2)ccn1 (stereo not drawn) [[X-15], 4-{4-[4-(pyridin-4-yl)-1-(tetrahydro-2H-pyran-2-yl)-1H-pyrazol-5-yl]phenyl}morpholine]",1.26,,
"c1ccc(Oc2cccc(-c3c(-c4ccncc4)cnn3C3CCCCO3)c2)cc1 (stereo not drawn) [[X-16], 4-[5-(3-phenoxyphenyl)-1-(tetrahydro-2H-pyran-2-yl)-1H-pyrazol-4-yl]pyridine]",1.88,,
"CS(=O)(=O)c1ccc(-c2c(-c3ccncc3)cnn2C2CCCCO2)cc1 (stereo not drawn) [[X-17], 4-{5-[4-(methylsulphonyl)phenyl]-1-(tetrahydro-2H-pyran-2-yl)-1H-pyrazol-4-yl}pyridine]",0.96,,

Structure (SMILES),"chromatographic logP (physchem; pH 2.3, LogP (pH 2.3))","chromatographic logP (physchem; pH 2.7, logP (pH 2.7))",further results
"Clc1ccc(-c2c(-c3ccncc3)cnn2C2CCCCO2)cc1 (stereo not drawn) [[X-18], 4-[5-(4-chlorophenyl)-1-(tetrahydro-2H-pyran-2-yl)-1H-pyrazol-4-yl]pyridine]",1.52,,
"FC(F)(F)Oc1ccc(-c2c(-c3ccncc3)cnn2C2CCCCO2)cc1 (stereo not drawn) [[X-19], 4-{1-(tetrahydro-2H-pyran-2-yl)-5-[4-(trifluoromethoxy)phenyl]-1H-pyrazol-4-yl}pyridine]",1.78,,
"Clc1cccc(-c2c(-c3ccncc3)cnn2C2CCCCO2)c1Cl (stereo not drawn) [[X-20], 4-[5-(2,3-dichlorophenyl)-1-(tetrahydro-2H-pyran-2-yl)-1H-pyrazol-4-yl]pyridine]",1.66,,
"CN(C)c1cccc(-c2c(-c3ccncc3)cnn2C2CCCCO2)c1 (stereo not drawn) [[X-21], N,N-dimethyl-3-[4-(pyridin-4-yl)-1-(tetrahydro-2H-pyran-2-yl)-1H-pyrazol-5-yl]aniline]",1.33,,
"c1ccc(COc2ccccc2-c2c(-c3ccncc3)cnn2C2CCCCO2)cc1 (stereo not drawn) [[X-22], 4-{5-[2-(benzyloxy)phenyl]-1-(tetrahydro-2H-pyran-2-yl)-1H-pyrazol-4-yl}pyridine]",1.64,,
"NS(=O)(=O)c1ccc(-c2c(-c3ccncc3)cnn2C2CCCCO2)cc1 (stereo not drawn) [[X-23], 4-[4-(pyridin-4-yl)-1-(tetrahydro-2H-pyran-2-yl)-1H-pyrazol-5-yl]benzenesulphonamide]",0.92,,
"c1cnc2c(-c3c(-c4ccncc4)cnn3C3CCCCO3)cccc2c1 (stereo not drawn) [[X-24], 8-[4-(pyridin-4-yl)-1-(tetrahydro-2H-pyran-2-yl)-1H-pyrazol-5-yl]quinoline]",1.09,,
"CSc1nccc(-c2cn(C(C)C)nc2-c2ccc(F)cc2)n1 [[XL-1], 4-[3-(4-Fluorophenyl)-1-isopropyl-1H-pyrazol-4-yl]-2-(methylsulphanyl)pyrimidine]",,3.62,
"CC(C)n1cc(-c2ccnc(S(C)(=O)=O)n2)c(-c2ccc(F)cc2)n1 [[XLI-1], 4-[3-(4-Fluorophenyl)-1-isopropyl-1H-pyrazol-4-yl]-2-(methylsulphonyl)pyrimidine]",,2.9,
"O=C(Cc1ccnc(Cl)n1)c1ccc(F)cc1 [[XLIII-1], 2-(2-Chloropyrimidin-4-yl)-1-(4-fluorophenyl)ethanone]",,2.27,
"CC(C)Nc1nccc(CC(=O)c2ccc(F)cc2)n1 [[XLIV-1], 1-(4-fluorophenyl)-2-[2-(isopropylamino)pyrimidin-4-yl]ethanone]",,2.05,
"CC(C)Nc1nccc(C(=CN(C)C)C(=O)c2ccc(F)cc2)n1 [[XLV-1], 3-(Dimethylamino)-1-(4-fluorophenyl)-2-[2-(isopropylamino)pyrimidin-4-yl]prop-2-en-1-one]",,1.45,
"CC(C)Nc1nccc(-c2c[nH]nc2-c2ccc(F)cc2)n1 [[XLVI-1], 4-[3-(4-fluorophenyl)-1H-pyrazol-4-yl]-N-isopropylpyrimidin-2-amine]",,1.37,
"COCC(=O)Nc1cc(B2OC(C)(C)C(C)(C)O2)ccn1 [[XV-a-1], 2-Methoxy-N-[4-(4,4,5,5-tetramethyl-1,3,2-dioxaborolan-2-yl)pyridin-2-yl]acetamide]",,-0.18,
"CC(C)C(=O)Nc1cc(B2OC(C)(C)C(C)(C)O2)ccn1 [[XV-a-4], 2-Methyl-N-[4-(4,4,5,5-tetramethyl-1,3,2-dioxaborolan-2-yl)pyridin-2-yl]propanamide]",,0.04,
"CC1(C)OB(c2ccnc(NC(=O)CC3CC3)c2)OC1(C)C [[XV-a-5], 2-Cyclopropyl-N-[4-(4,4,5,5-tetramethyl-1,3,2-dioxaborolan-2-yl)pyridin-2-yl]acetamide]",,0.27,
"CCOC(=O)Nc1cc(B2OC(C)(C)C(C)(C)O2)ccn1 [[XV-a-6], Ethyl [4-(4,4,5,5-tetramethyl-1,3,2-dioxaborolan-2-yl)pyridin-2-yl]carbamate]",,0,
"CC1(C)OB(c2ccnc(NC(=O)C3CC3)c2)OC1(C)C [[XV-a-7], N-[4-(4,4,5,5-Tetramethyl-1,3,2-dioxaborolan-2-yl)pyridin-2-yl]cyclopropanecarboxamide]",,0,
"O=C(Cc1ccncc1)c1c(F)cccc1F [[XXV-1], 1-(2,6-Difluorophenyl)-2-(pyridin-4-yl)ethanone]",,0.62,
"CN(C)C=C(C(=O)c1c(F)cccc1F)c1ccncc1 [[XXVI-1], 1-(2,6-Difluorophenyl)-3-(dimethylamino)-2-(pyridin-4-yl)prop-2-en-1-one]",,0.6,
"Fc1cccc(F)c1-c1n[nH]cc1-c1ccncc1 [[XXVII-1], 4-[3-(2,6-Difluorophenyl)-1H-pyrazol-4-yl]pyridine]",,1.54,
"Fc1ccc(-c2n[nH]c(Br)c2-c2ccncc2)cc1 [[XXVIII-1], 4-[5-Bromo-3-(4-fluorophenyl)-1H-pyrazol-4-yl]pyridine]",,0.92,
"CSc1nccc(-c2c[nH]nc2-c2ccc(F)cc2)n1 [[XXXIX-1], 4-[3-(4-Fluorophenyl)-1H-pyrazol-4-yl]-2-(methylsulphanyl)pyrimidine]",,2.28,
